Measurements published in PubChem BioAssay (NCI).
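Assay format: 96-well plates, 48-hour exposure. Abbreviation: GI50, concentration required for 50% inhibition of growth. TGI: concentration producing complete growth inhibition.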

What was measured:
Experiment in all cases: growth of human tumour cells (NCI), 48 h
[1] = system: 786-0 renal
[2] = system: A498 renal
[3] = system: A549 NSCLC
[4] = system: ACHN renal
[5] = system: BT-549 breast
[6] = system: CAKI-1 renal
[7] = system: CCRF-CEM leukemia
[8] = system: COLO 205 colon
[9] = system: DU-145 prostate
[10] = system: EKVX NSCLC
[11] = system: HCC-2998 colon
[12] = system: HCT-116 colon
[13] = system: HCT-15 colon
[14] = system: HL-60(TB) leukemia
[15] = system: HOP-62 NSCLC
[16] = system: HOP-92 NSCLC
[17] = system: HS 578T breast
[18] = system: HT29 colon
[19] = system: IGROV1 ovarian
[20] = system: K-562 leukemia
[21] = system: KM12 colon
[22] = system: LOX IMVI melanoma
[23] = system: MALME-3M melanoma
[24] = system: MCF7 breast
[25] = system: MDA-MB-231 breast
[26] = system: MDA-MB-468 breast
[27] = system: MOLT-4 leukemia
[28] = system: NCI-H226 lung
[29] = system: NCI-H23 lung
[30] = system: NCI-H460 lung
[31] = system: NCI-H522 lung
[32] = system: NCI/ADR-RES ovarian
[33] = system: OVCAR-3 ovarian
[34] = system: OVCAR-4 ovarian
[35] = system: OVCAR-5 ovarian
[36] = system: OVCAR-8 ovarian
[37] = system: PC-3 prostate
[38] = system: RPMI-8226 leukemia
[39] = system: RXF 393 renal
[40] = system: SF-268 CNS
[41] = system: SF-295 CNS
[42] = system: SF-539 CNS
[43] = system: SK-MEL-2 melanoma
[44] = system: SK-MEL-28 melanoma
[45] = system: SK-MEL-5 melanoma
[46] = system: SK-OV-3 ovarian
[47] = system: SN12C renal
[48] = system: SNB-19 CNS
[49] = system: SR leukemia
[50] = system: SW-620 colon
[51] = system: T-47D breast
[52] = system: TK-10 renal
[53] = system: U251 CNS
[54] = system: UACC-257 melanoma
[55] = system: UACC-62 melanoma
[56] = system: UO-31 renal

Cc1ccc(/C=C(\C#N)n2nnc3c(F)cccc32)cc1
GI50 [1]: 424 nM
TGI [1]: 15800 nM
GI50 [2]: 10800 nM
TGI [2]: 87000 nM
GI50 [3]: 504 nM
TGI [3]: > 100000 nM
GI50 [4]: 555 nM
TGI [4]: > 100000 nM
GI50 [5]: 365 nM
TGI [5]: 2490 nM
GI50 [6]: 152 nM
TGI [6]: > 100000 nM
GI50 [7]: 285 nM
TGI [7]: 1660 nM
GI50 [8]: 294 nM
TGI [8]: 739 nM
GI50 [9]: 386 nM
TGI [9]: > 100000 nM
GI50 [10]: 1560 nM
TGI [10]: > 94100 nM
GI50 [11]: 971 nM
TGI [11]: 3240 nM
GI50 [12]: 285 nM
TGI [12]: > 35800 nM
GI50 [13]: 319 nM
TGI [13]: > 100000 nM
GI50 [14]: 196 nM
TGI [14]: 519 nM
GI50 [15]: 398 nM
TGI [15]: 6290 nM
GI50 [16]: 79.7 nM
TGI [16]: 1680 nM
GI50 [17]: 379 nM
TGI [17]: > 100000 nM
GI50 [18]: 426 nM
TGI [18]: > 100000 nM
GI50 [19]: 507 nM
TGI [19]: 9150 nM
GI50 [20]: 62.4 nM
GI50 [21]: 470 nM
TGI [21]: > 100000 nM
GI50 [22]: 349 nM
TGI [22]: 2300 nM
GI50 [23]: 404 nM
TGI [23]: > 96200 nM
GI50 [24]: 1530 nM
TGI [24]: > 100000 nM
GI50 [25]: 426 nM
TGI [25]: 2770 nM
GI50 [26]: 1530 nM
TGI [26]: 8710 nM
GI50 [27]: 473 nM
TGI [27]: 4400 nM
GI50 [28]: 936 nM
TGI [28]: > 62900 nM
GI50 [29]: 523 nM
TGI [29]: 29000 nM
GI50 [30]: 376 nM
TGI [30]: 3300 nM
GI50 [31]: 84.4 nM
TGI [31]: 360 nM
GI50 [32]: 111 nM
TGI [32]: 343 nM
GI50 [33]: 254 nM
TGI [33]: 941 nM
GI50 [34]: 2790 nM
TGI [34]: > 100000 nM
GI50 [35]: 421 nM
TGI [35]: 5240 nM
GI50 [36]: 328 nM
TGI [36]: 1690 nM
GI50 [37]: 328 nM
TGI [37]: > 38900 nM
GI50 [38]: 296 nM
TGI [38]: 1710 nM
GI50 [39]: 237 nM
TGI [39]: 735 nM
GI50 [40]: 765 nM
TGI [40]: > 61500 nM
GI50 [41]: 289 nM
TGI [41]: 50800 nM
GI50 [42]: 200 nM
TGI [42]: 467 nM
GI50 [43]: 302 nM
TGI [43]: > 100000 nM
GI50 [44]: 825 nM
TGI [44]: > 100000 nM
GI50 [45]: 399 nM
TGI [45]: 4360 nM
GI50 [46]: 585 nM
TGI [46]: 46200 nM
GI50 [47]: 416 nM
TGI [47]: 2250 nM
GI50 [48]: 718 nM
TGI [48]: > 100000 nM
GI50 [49]: 254 nM
TGI [49]: 4310 nM
GI50 [50]: 250 nM
TGI [50]: > 100000 nM
GI50 [51]: 1630 nM
TGI [51]: > 100000 nM
GI50 [52]: 2700 nM
TGI [52]: 7790 nM
GI50 [53]: 387 nM
TGI [53]: > 42700 nM
GI50 [54]: 894 nM
TGI [54]: > 100000 nM
GI50 [55]: 273 nM
TGI [55]: 27000 nM
GI50 [56]: 324 nM
TGI [56]: > 100000 nM
